The target of this assay is GST-PPARG-LBD (Homo sapiens (Human), UniProt P37231). The assay is described as follows: Lanthascreen PPARG competitive binding assay (Invitrogen, TR-FRET). Conditions: Lanthascreen competitive binding, NA = not active, inc = incomplete curve; for IC50: read-out: IC50 (nM) Lantha. As for the experimental part:
Lanthascreen PPARG Competitive Binding Assay (Invitrogen)
The assay was performed according to manufacturer protocol. A mixture of […], 5 nM Tb-GST-antibody, 5 nM Fluormone Pan-PPAR Green, and serial dilutions of the experimental compound, beginning at 10 μM downwards, was added to wells of black 384-well low-volume plates (Greiner) to a total volume of 18 μL. All dilutions were made in TR-FRET assay buffer C. DMSO at 2% final concentration was used as a no-ligand control. Experiment was performed in triplicate, and incubated for 2 hours in the dark prior to assay read in Perkin Elmer ViewLux ultra HTS microplate reader. FRET signal was measured by excitation at 340 nm and emission at 520 nm for fluorescein and 490 nm for terbium. Fold change over DMSO was calculated using GraphPad Prism Software (La Jolla, Calif.) by calculating 520 nm/490 nm ratio. Graphs were plotted as fold change of FRET signal for compound treatment over DMSO-only control.
Background: In TR-FRET formats the signal depends on donor and acceptor labels being close together.

GST-PPARG-LBD, sequence (P37231 238-503): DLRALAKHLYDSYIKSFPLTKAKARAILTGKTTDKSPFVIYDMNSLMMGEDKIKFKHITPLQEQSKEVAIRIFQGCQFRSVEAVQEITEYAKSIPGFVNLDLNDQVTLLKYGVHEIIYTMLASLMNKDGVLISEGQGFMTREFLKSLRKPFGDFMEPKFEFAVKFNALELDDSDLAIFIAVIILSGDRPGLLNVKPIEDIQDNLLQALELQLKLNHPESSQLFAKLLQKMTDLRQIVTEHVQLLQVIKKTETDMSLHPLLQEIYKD

Consider `COc1ccc(CNC(=O)c2ccc3c(c2)c(C)c(C)n3Cc2ccc(-c3ccccc3C(=O)O)cc2)cc1` [Example 104, 4′-((5-(4-methoxybenzylcarbamoyl)-2,3-dimethyl-1H-indol-1-yl)methyl)biphenyl-2-carboxylic acid], for which the IC50 (usually the concentration that gives 50% inhibition) came out at 7 nM.

`COc1ccc(CNC(=O)c2ccc3c(c2)c(C)c(C)n3Cc2ccc(-c3ccccc3C(=O)O)cc2)cc1F` [Example 111, 4′-((5-(3-fluoro-4-methoxybenzylcarbamoyl)-2,3-dimethyl-1H-indol-1-yl)methyl)biphenyl-2-carboxylic acid]: the IC50 worked out at 13 nM. The same measure, in the same setting: next, `Cc1c(C)n(Cc2ccc(-c3ccccc3C(=O)O)cc2)c2ccc(C(=O)NCc3cccc4ccccc34)cc12` [Example 115, 4′-((2,3-dimethyl-5-(naphthalen-1-ylmethylcarbamoyl)-1H-indol-1-yl)methyl)biphenyl-2-carboxylic acid]: 64 nM. Take `CCC(NC(=O)c1ccc2c(c1)c(C)c(C)n2Cc1ccccc1-c1cccc(C(=O)O)c1)c1ccccc1` (stereo not drawn) [Example 126, 2′-((2,3-Dimethyl-5-((1-phenylpropyl)carbamoyl)-1H-indol-1-yl)methyl)-[1,1′-biphenyl]-3-carboxylic acid]: the IC50 was 99 nM. Turning to `Cc1cn(Cc2ccc(-c3ccccc3C(=O)O)cc2)c2ccc(C(=O)N[C@@H](C)c3ccc(Br)cc3)cc12` [Example 132, (S)-4′-((5-((1-(4-Bromophenyl)ethyl)carbamoyl)-3-methyl-1H-indol-1-yl)methyl)-[1,1′-biphenyl]-2-carboxylic acid], the IC50 was found to be 24 nM. With `COc1c(F)cccc1[C@H](C)NC(=O)c1ccc2c(c1)c(C)c(C)n2Cc1ccc(-c2ccccc2C(=O)O)cc1` [Example 177, (S)-4′-((5-((1-(3-fluoro-2-methoxyphenyl)ethyl)carbamoyl)-2,3-dimethyl-1H-indol-1-yl)methyl)-[1,1′-biphenyl]-2-carboxylic acid], the half-inhibitory concentration (IC50) is 21 nM. On to `Cc1c(C)n(Cc2ccc(-c3ccccc3C#N)cc2)c2ccc(C(=O)N[C@@H](C)c3ccc(C(C)(C)C)cc3)cc12` [Example 184, (S)—N-(1-(4-(tert-butyl)phenyl)ethyl)-1-((2′-cyano-[1,1′-biphenyl]-4-yl)methyl)-2,3-dimethyl-1H-indole-5-carboxamide], for which the “IC50 (nM) Lantha” value is “^2inc^”. `Cc1c(C)n(Cc2ccc(-c3ccccc3C#N)cc2)c2ccc(C(=O)N[C@@H](C)c3cccc(C(C)(C)C)c3)cc12` [Example 185, (S)—N-(1-(3-(tert-butyl)phenyl)ethyl)-1-((2′-cyano-[1,1′-biphenyl]-4-yl)methyl)-2,3-dimethyl-1H-indole-5-carboxamide]: the “IC50 (nM) Lantha” value is listed as “inc”. Take `Cc1c(C)n(Cc2ccc(-c3ccccc3C#N)cc2)c2ccc(C(=O)N[C@@H](C)c3ccc(C(C)C)cc3)cc12` [Example 186, (S)-1-((2′-cyano-[1,1′-biphenyl]-4-yl)methyl)-N-(1-(4-isopropylphenyl)ethyl)-2,3-dimethyl-1H-indole-5-carboxamide]: the “IC50 (nM) Lantha” value is reported as “inc”.

For the molecule `CC[C@H](NC(=O)c1ccc2c(ccn2Cc2ccccc2-c2ccc(C(=O)O)cc2)c1)c1ccccc1` [Example 189, (S)-2′-((5-((1-phenylpropyl)carbamoyl)-1H-indol-1-yl)methyl)-[1,1′-biphenyl]-4-carboxylic acid], the IC50 turned out to be 100 nM. `Cc1c(C)n(Cc2ccc(-c3ccccc3C(=O)O)cc2)c2ccc(C(=O)N[C@H](C)c3c(F)cncc3F)cc12` [Example 215, (R)-4′-((5-((1-(3,5-difluoropyridin-4-yl)ethyl)carbamoyl)-2,3-dimethyl-1H-indol-1-yl)methyl)-[1,1′-biphenyl]-2-carboxylic acid]: the IC50 came out at 309 nM. On to `Cc1c(C)n(Cc2ccc(-c3ccccc3C#N)cc2)c2ccc(C(=O)N[C@@H](C)c3cccc(C(C)C)c3)cc12` [Example 242, (S)-1-((2′-cyano-[1,1′-biphenyl]-4-yl)methyl)-N-(1-(3-isopropylphenyl)ethyl)-2,3-dimethyl-1H-indole-5-carboxamide], for which the “IC50 (nM) Lantha” value is “inc”.
